The target of one experiment is E. coli PBP1a (Escherichia coli (strain K12), UniProt P02918). Briefly: Radioligand competition binding assay with 14C-labeled boronic acid probe, PBP1a. An outline of the steps: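 Purified E. coli PBP1a (0.1 μM) preincubated 60 min with test boronic acid inhibitor in 20 mM Tris pH 7.5, 500 mM NaCl, 0.1% Triton X-100, then 60 min with 20 μM ^14C-labeled boronic acid probe. Bound probe recovered by spin desalting and counted by scintillation; EC50 reported.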
In general terms: Displacement assays read how much labelled ligand stays bound in the presence of the test substance.

The test system of experiment [1] is E. coli DH5α empty pLBII vector control strain. Briefly: microbe, parasite or virus in culture. As to conditions: Escherichia coli, read-out: Microbiological Activity (MIC in mg/L), E. coli DH5α/pLBII. Format: cell-based, Escherichia coli. A digest of the protocol: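 MIC was the lowest concentration visibly free of growth after 16–20 h at 37 °C, against 5×10^5 CFU/mL of the empty-pLBII DH5α control strain. Twofold compound dilutions were made in cation-adjusted Mueller-Hinton broth.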

The target in a further experiment is E. coli PBP2 (Escherichia coli (strain K12), UniProt P0AD65). The experiment in a line: E. coli PBP2 Bocillin-FL fluorescence polarization competition binding assay. The note with it: fluorescence polarization competition binding with Bocillin-FL; read-out: E. coli K12 PBP2 Potency (EC50). An outline of the steps:
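Purified PBP2 at 1.5 μM final was preincubated with boronic acid inhibitor, then Bocillin-FL added to 0.1 μM final in Hepes pH 8.0/NaCl/glycerol buffer. Polarization was monitored 90 min; the concentration halving probe binding is reported as EC50.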
Background: In fluorescence polarisation assays a small probe gives low polarisation when free and higher when bound to something large.

The subject of experiment [2] is engineered strain of Escherichia coli harboring CTX-M15. The experiment in a line: microbe, parasite or virus in culture. In kind it is cell-based. As to conditions: Escherichia coli, read-out: Microbiological Activity (MIC in mg/L), E. coli DH5α/pLBII-CTX-M15, engineered strain producing CTX-M15.
The next experiment has as its target E. coli PBP3 (Escherichia coli (strain K12), UniProt P0AD68). The experiment in a line: E. coli PBP3 Bocillin-FL fluorescence polarization competition binding assay. An outline of the steps:
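Competition against 0.1 μM Bocillin-FL for binding to 1.5 μM purified protein, read by fluorescence polarization for 60 min. Compounds tested from 0 to 1000 μM; EC50 taken as the concentration reducing probe binding.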

In the next experiment the target is E. coli PBP4 (Escherichia coli (strain K12), UniProt P24228). Briefly: E. coli PBP4 Bocillin-FL fluorescence polarization competition binding assay. As to conditions: fluorescence polarization competition binding with Bocillin-FL; read-out: E. coli K12 PBP4 Potency (EC50). An excerpt: To determine the ability of boronic acid-based test PBP inhibitors to bind Penicillin Binding Proteins (PBPs), Bocillin-FL (fluorescently-labeled penicillin V; ThermoFisher Scientific) was used in a fluorescence polarization (FP) competition binding assay to assess inhibitor binding to PBP2, PBP3 or PBP4 from Escherichia coli. PBPs were cloned and purified as described previously (King, D. T, et al., ACS Infectious Diseases 2015, 1, 175-184). To establish assay conditions for competition binding, an enzyme titration/saturation binding experiment was initially performed. Bocillin-FL was prepared at 0.2 μM in a buffer comprised of 50 mM Hepes (pH 8.0), 300 mM NaCl and 5% (v/v) glycerol. Saturation binding was performed by mixing 40 μl of PBP solutions ranging in concentrations from 0-12 μM with 40 μl of the 0.2 μM Bocillin-FL solution, in individual wells of a black 384-well microplate. FP was measured immediately upon mixing (Excitation, 490 nm; Emission, 520 nm; g-factor, 0.96), using a Cytation3 (BioTek) microplate reader and measured continuously for up to 120 minutes. […] Assays (80 μl final volume) were performed with PBPs at a final concentration of 1.5 μM, Bocillin-FL at 0.1 μM and beta-lactam concentrations that ranged from 0-1000 μM. […] Bocillin-FL was added and the FP immediately measured for 60 minutes (90 minutes for PBP2). The beta-lactam potency was reported as the concentration of beta-lactam required to reduce binding of Bocillin-FL by […] (EC50). […] Binding assays for boronic acid PBP inhibitors were performed in an identical fashion.
E. coli PBP4, sequence (P24228 21-477): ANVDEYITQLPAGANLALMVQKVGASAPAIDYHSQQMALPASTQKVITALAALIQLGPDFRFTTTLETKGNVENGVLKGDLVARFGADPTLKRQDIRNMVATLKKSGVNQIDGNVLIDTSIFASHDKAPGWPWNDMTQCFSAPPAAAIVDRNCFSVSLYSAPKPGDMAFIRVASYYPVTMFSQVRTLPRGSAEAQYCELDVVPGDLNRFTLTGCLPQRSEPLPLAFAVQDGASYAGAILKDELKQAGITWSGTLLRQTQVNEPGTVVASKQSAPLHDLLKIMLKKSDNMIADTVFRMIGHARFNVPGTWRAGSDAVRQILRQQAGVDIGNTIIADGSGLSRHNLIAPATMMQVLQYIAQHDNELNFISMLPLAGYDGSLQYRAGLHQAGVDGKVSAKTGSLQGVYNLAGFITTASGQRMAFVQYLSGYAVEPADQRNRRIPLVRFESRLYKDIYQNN

Structures are written as SMILES. Values after ≈ are worked out from the molar mass of the structure shown.

E. coli PBP1a, sequence (P02918 whole entry): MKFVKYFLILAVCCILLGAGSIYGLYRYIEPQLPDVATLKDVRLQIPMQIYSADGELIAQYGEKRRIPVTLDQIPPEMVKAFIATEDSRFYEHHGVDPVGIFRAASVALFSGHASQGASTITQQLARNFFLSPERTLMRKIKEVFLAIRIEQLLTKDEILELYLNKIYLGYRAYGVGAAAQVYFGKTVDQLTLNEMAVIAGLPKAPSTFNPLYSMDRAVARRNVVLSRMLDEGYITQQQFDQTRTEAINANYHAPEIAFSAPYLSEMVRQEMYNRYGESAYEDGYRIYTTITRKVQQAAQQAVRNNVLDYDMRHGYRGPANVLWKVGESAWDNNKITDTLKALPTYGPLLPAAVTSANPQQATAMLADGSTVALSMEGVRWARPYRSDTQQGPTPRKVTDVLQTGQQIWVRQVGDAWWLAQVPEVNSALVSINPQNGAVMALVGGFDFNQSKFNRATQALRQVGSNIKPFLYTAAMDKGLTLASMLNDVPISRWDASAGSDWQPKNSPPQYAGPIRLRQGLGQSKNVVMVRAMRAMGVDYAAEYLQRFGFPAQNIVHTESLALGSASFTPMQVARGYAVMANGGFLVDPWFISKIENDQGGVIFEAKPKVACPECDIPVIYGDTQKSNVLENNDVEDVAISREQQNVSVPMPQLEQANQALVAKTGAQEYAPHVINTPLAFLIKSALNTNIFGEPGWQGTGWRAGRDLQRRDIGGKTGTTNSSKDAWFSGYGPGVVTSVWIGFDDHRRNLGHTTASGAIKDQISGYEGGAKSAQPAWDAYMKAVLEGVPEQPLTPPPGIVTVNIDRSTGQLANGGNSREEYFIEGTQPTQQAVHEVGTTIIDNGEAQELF
E. coli PBP3, sequence (P0AD68 whole entry): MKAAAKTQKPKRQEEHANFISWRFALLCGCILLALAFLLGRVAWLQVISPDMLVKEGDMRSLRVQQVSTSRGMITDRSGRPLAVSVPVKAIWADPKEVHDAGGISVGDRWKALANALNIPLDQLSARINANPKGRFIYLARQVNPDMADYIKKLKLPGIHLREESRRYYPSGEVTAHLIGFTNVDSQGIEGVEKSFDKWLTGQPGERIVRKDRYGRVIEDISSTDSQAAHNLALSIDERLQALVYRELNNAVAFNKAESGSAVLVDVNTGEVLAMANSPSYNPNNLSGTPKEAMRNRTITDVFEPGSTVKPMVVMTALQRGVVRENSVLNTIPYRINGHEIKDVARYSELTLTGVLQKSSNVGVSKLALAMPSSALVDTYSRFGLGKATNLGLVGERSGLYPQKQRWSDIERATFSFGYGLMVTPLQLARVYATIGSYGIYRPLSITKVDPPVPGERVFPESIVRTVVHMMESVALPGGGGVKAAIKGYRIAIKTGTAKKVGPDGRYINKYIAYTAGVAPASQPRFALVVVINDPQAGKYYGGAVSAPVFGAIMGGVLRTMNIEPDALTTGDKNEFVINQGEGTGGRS
E. coli PBP2, sequence (P0AD65 whole entry): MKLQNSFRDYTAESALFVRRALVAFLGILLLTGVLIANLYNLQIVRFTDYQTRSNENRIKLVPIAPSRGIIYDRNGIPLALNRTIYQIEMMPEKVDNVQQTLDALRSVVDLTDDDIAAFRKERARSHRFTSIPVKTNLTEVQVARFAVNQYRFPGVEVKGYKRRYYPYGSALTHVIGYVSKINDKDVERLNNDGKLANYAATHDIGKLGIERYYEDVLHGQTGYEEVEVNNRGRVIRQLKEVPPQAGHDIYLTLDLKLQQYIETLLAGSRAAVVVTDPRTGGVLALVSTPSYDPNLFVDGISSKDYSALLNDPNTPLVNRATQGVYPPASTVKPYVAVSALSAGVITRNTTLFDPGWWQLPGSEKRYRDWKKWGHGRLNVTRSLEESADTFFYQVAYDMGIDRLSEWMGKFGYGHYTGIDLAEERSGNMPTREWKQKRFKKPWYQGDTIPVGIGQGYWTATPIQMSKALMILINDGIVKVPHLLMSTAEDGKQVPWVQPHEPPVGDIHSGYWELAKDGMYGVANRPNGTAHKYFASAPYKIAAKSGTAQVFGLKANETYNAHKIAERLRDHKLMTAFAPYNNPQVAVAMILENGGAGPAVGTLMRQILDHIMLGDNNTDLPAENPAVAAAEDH

Turning to `CCN1CCN(C(=O)NC(C(=O)N[C@H]2Cc3cc(C)cc(C(=O)O)c3OB2O)c2csc(N)n2)C(=O)C1=O` (stereo partly drawn) [Example 20, (3R)-3-(2-(2-aminothiazol-4-yl)-2-(4-ethyl-2,3-dioxopiperazine-1-carboxamido)acetamido)-2-hydroxy-6-methyl-3,4-dihydro-2H-benzo[e][1,2]oxaborinine-8-carboxylic acid], the EC50 (commonly the concentration giving half of the maximal effect) was less than 10 µM on E. coli PBP1a, more than 500 µM at E. coli PBP2, 30 to 500 µM on E. coli PBP3 and more than 500 µM on E. coli PBP4. In addition, the MIC in experiment [1] and in experiment [2] was 32 to 64 mg/L (≈ 58.8 to 118 µM) in each case.

These data come from US12173018B2, “Penicillin-binding protein inhibitors” (priority 2018, dated 2024).
